Here are results for one compound from patent US5236937A, “Pyridinyl compounds which are useful as angiotensin II antagonists” (Imperial Chemical Industries PLC, priority 1991, dated 1993).

The assay concerns angiotensin II-induced pressor responses. Kind of assay: Test C: inhibition of angiotensin II-induced pressor responses in terminally-anaesthetised or conscious rats. In kind it is in vivo. The conditions noted are these: iv, rat, i.v. administration. The text has this: The antagonism of one or more of the physiological actions of AII and, in particular, the antagonism of the interaction of AII with the receptors which mediate its effects on a target tissue, may be assessed using one or more of the following, routine laboratory procedures: Test C: This in vivo test involves using terminally-anaesthetised or conscious rats in which an arterial catheter has been implanted under anaesthesia for the measurement of changes in blood pressure. The AII antagonistic effects of the test compound following oral or parenteral administration, are assessed against angiotensin II-induced pressor responses. To ensure that the effect is specific, the effect of the test compound on vasopressin-induced pressor responses may also be determined in the same preparation.

SMILES strings stand for the structures.

The compound `Cc1cc(NCc2ccc(-c3ccccc3-c3nnn[nH]3)cc2)c(I)c(C)n1.Cl` [Example 1, 2,6-dimethyl-3-iodo-4-[(2'-(1H-tetrazol-5-yl)biphenyl-4-yl)methylamino]pyridine hydrochloride] gave an ED50 of 0.047 mg/kg.
